# Results as given in patent US10485739B2, “High strength microcapsules” (ENCAPSYS, LLC, priority 2014, dated 2019).
# Assay: Monomer solubility in water (GC/MS of water phase)
# Format: physicochemical
# Conditions: @ 25° C.; monomer equilibrated with deionized water 24 hours
# Procedure: Monomer Solubility in Water
# Solubility of the monomers in water is determined by combining 5 g of monomer and 5 g of deionized water in a sealed 20 ml vial for 30 min, after which the sample is allowed to sit at room temperature for 24 hours to establish equilibrium and phase separation of monomer from water. The water phase was then removed and analyzed to determine the monomer concentration GC/MS (7890B GC with a 5977A MSD Mass Spectrophotometer), both from Agilent. Inlet temperature at 270 C. Ramp starting at 100° C. to 320° C. at 10 degrees per min. The mass spec was scanning from a molecular weight of 30-500. The GC column was a Agilent DB-SMS 30M×0.250 mm.
row,Molecule,Solubility in water
1,polyethylene glycol (600) diacrylate [SR610],soluble
2,Polyethylene glycol 400 diacrylate [SR344],soluble
3,"C=CC(=O)OCCOCCOCC [SR256, 2-(2-ethoxyethoxy) ethyl acrylate]",25330 µg/mL
4,Polyethylene glycol 200 diacrylate [SR259],40680 µg/mL

# Same assay, conditions: thermodynamic from solid; @ 25° C.; monomer equilibrated with deionized water 24 hours
row,Molecule,solubility at 24 h [µg/mL]
1,"C=C(C)C(=O)OCCOC(=O)C(=C)C [SR206, Ethylene glycol dimethacrylate]",2400
2,"C=CC(=O)OCC(C)(C)COC(=O)C=C [SR247, Neopentyl glycol diacrylate]",940
3,"C=CC(=O)OCC(COC(=O)C=C)(COC(=O)C=C)COC(=O)C=C [SR295, PENTAERYTHRITOL TETRAACRYLATE]",4230

# Assay: not given
# Conditions: temperature at which initiator has 10 hour half-life; cited from earlier work
row,Molecule,10 hour ½ life temperature
1,"CC(C)(N=NC(C)(C)C(=N)N)C(=N)N.Cl [Sample V-50, 2,2′-azobis(2-amidinopropane) hydrochloride]",10 hour ½ life at 56 °C
2,"CCC(C)(C#N)N=NC(C)(C#N)CC (centres unmarked) [Vazo-67, 2,2′-azobis(2-methylbutyronitrile)]",10 hour ½ life at 67 °C
3,"N#CC1(N=NC2(C#N)CCCCC2)CCCCC1 [Vazo-88, 1,1′-Azobis(cyclohexanecarbonitrile)]",10 hour ½ life at 88 °C
4,"CC(C)(N=NC(C)(C)C(=O)NCCO)C(=O)NCCO [VA-086, 2,2′-Azobis[2-methyl-N-(2-hydroxyethyl)propionamide]]",10 hour ½ life at 86 °C
